How the values were obtained:
[1] = molecular target: His-tagged human recombinant kinase full-length Akt2 activated by PDK1 (Homo sapiens (Human), UniProt P31751); test: Akt2 kinase assay (Akt2 TR-FRET assay, Biological Assay 2.0); assay type: biochemical; settings: 10 μM ATP, 1 μM biotinylated peptide substrate, 60 min at 22° C.
Source text: Biological Assay 2.0: Akt2 Kinase Assay
Akt2 inhibitory activity of compounds of the present invention was quantified employing the Akt2 TR-FRET assay as described in the following paragraphs.
(§1) His-tagged human recombinant kinase full-length Akt2 expressed in insect cells and activated by PDK1 was purchased form Invitrogen (part number PV 3975). As substrate for the kinase reaction the biotinylated peptide biotin-Ahx-KKLNRTLSFAEPG (C-terminus in amide form) was used which can be purchased e.g. from the company Biosynthan GmbH (Berlin-Buch, Germany).
(§2) For the assay 50 nl of a 100 fold concentrated solution of the test compound in DMSO was pipetted into a black low volume 384 well microtiter plate (Greiner Bio-One, Frickenhausen, Germany), 2 μl of a solution of Akt2 in assay buffer [50 mM TRIS/HCl pH 7.5, 5 mM MgCl2, 1 mM dithiothreitol, 0.02% (v/v) Triton X-100 (Sigma)] were added and the mixture was incubated for 15 min at 22° C. to allow prebinding of the test compounds to the enzyme before the start of the kinase reaction. Then the kinase reaction was started by the addition of 3 μl of a solution of adenosine-tri-phosphate (ATP, 16.7 μM=>final conc. in the 5 μl assay volume is 10 μM) and substrate (1.67 μM=>final conc. in the 5 μl assay volume is 1 μM) in assay buffer and the resulting mixture was incubated for a reaction time of 60 min at 22° C. The concentration of Akt2 in the assay was adjusted depending of the activity of the enzyme lot and was chosen appropriate to have the assay in the linear range, typical enzyme concentrations were in the range of about 0.2 ng/μl (final conc. in the 5 μl assay volume).
(§3) The reaction was stopped by the addition of 5 μl of a solution of HTRF detection reagents (200 nM streptavidine-XL665 [Cisbio] and 1.5 nM anti-phosho-Serine antibody [Millipore, cat. #35-001] and 0.75 nM LANCE Eu-W 1024 labeled anti-mouse IgG antibody [Perkin Elmer]) in an aqueous EDTA-solution (100 mM EDTA, 0.1% (w/v) bovine serum albumin in 50 mM HEPES/NaOH pH 7.5).
(§4) The resulting mixture was incubated 1 h at 22° C. to allow the binding of the biotinylated phosphorylated peptide to the streptavidine-XL665 and the antibodies. Subsequently the amount of phosphorylated substrate was evaluated by measurement of the resonance energy transfer from the anti-mouse-IgG-Eu-Chelate to the streptavidine-XL665. Therefore, the fluorescence emissions at 620 nm and 665 nm after excitation at 350 nm was measured in a TR-FRET reader, e.g. a Rubystar (BMG Labtechnologies, Offenburg, Germany) or a Viewlux (Perkin-Elmer). The ratio of the emissions at 665 nm and at […] was taken as the measure for the amount of phosphorylated substrate. The data were normalised (enzyme reaction without inhibitor=0% inhibition, all other assay components but no enzyme=100% inhibition).

[2] = molecular target: His-tagged human recombinant kinase full-length Akt1 (Homo sapiens (Human), UniProt P31749); test: Akt1 kinase assay (Akt1 TR-FRET assay, Biological Assay 1.0); assay type: biochemical; settings: 10 μM ATP, 1 μM biotinylated peptide substrate, 60 min at 22° C.
Source text: Biological Assay 1.0: Akt1 Kinase Assay
as §1, with “Akt1 inhibitory activity of compounds of the present invention may be quantified employing the Akt1 TR-FRET assay as described in the following paragraphs. His-tagged” for “His-tagged”, “Akt1” for “Akt2”, “cells” for “cells and activated by PDK1”, “3599).” for “3975).”
as §2, with “Akt1” for “Akt2”, “0.05” for “0.2”
as §3
as §4, with “HTRF” for “TR-FRET”

Chain of His-tagged human recombinant kinase full-length Akt2 activated by PDK1 (P31751 whole entry): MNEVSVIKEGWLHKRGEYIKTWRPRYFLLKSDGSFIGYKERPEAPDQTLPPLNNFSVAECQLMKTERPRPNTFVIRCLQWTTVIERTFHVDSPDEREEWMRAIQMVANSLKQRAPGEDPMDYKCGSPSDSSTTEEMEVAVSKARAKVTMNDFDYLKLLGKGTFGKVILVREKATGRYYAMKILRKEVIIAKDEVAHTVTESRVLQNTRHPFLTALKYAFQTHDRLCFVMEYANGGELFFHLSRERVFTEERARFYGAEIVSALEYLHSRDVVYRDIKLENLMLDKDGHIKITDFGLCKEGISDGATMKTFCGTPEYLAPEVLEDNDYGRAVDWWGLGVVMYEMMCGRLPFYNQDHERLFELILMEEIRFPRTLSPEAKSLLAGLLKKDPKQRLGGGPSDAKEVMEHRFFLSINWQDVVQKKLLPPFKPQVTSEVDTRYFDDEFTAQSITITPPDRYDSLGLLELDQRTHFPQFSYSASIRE
Chain of His-tagged human recombinant kinase full-length Akt1 (P31749 whole entry): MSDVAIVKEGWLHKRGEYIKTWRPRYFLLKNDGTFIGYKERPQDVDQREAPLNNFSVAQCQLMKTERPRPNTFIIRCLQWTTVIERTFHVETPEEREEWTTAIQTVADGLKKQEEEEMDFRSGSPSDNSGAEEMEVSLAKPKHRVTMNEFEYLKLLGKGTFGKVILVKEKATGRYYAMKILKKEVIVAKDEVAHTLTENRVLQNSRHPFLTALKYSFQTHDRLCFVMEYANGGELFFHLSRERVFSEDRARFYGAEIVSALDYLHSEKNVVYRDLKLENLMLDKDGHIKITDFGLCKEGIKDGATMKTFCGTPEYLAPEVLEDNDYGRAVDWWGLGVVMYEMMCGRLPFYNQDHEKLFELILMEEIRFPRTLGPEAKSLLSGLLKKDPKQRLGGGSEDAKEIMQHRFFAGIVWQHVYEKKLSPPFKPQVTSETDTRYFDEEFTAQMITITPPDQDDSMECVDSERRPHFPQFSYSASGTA

| SMILES | IC50 [1] | IC50 [2] |
| --- | --- | --- |
| c1ccc(-c2cn3ccnc3nc2-c2ccc(CN3CCC(c4cnc5ccccc5n4)CC3)cc2)cc1 [Example 36.0, 2-{1-[4-(6-phenyl-imidazo[1,2-a]pyrimidin-7-yl)-benzyl]-piperidine-4-yl}-quinoxaline] | 589 nM | 70 nM |
| Fc1cnc2nc(-c3ccc(CN4CC(c5nnc(-c6ccccn6)[nH]5)C4)cc3)c(-c3ccccc3)cn12 [Example 4.0, 3-fluoro-6-phenyl-7-(4-{[3-(5-pyridin-2-yl-1,2,4-triazol-3-yl)azetidin-1-yl]methyl}phenyl)imidazo[1,2-a]pyrimidine] | < 50 nM | < 50 nM |
| CSc1nc2nc(-c3ccc(CN4CCC(c5n[nH]c(-c6ncccn6)n5)CC4)cc3)c(-c3ccccc3)cn2n1 [Example 72.2, 2-methylsulfanyl-6-phenyl-5-{4-[4-(5-pyrimidin-2-yl-1H-[1,2,4]triazol-3-yl)-piperidin-1-ylmethyl]-phenyl}-[1,2,4]triazolo[1,5-a]pyrimidine] | 222 nM | 77 nM |
| Cc1nc2nc(-c3ccc(CN4CCC(c5n[nH]c(-c6ccccn6)n5)C4)cc3)c(-c3ccccc3)cn2n1 (racemic) [Example 24.0, (±)-2-methyl-6-phenyl-5-{4-[3-(5-pyridin-2-yl-1H-[1,2,4]triazol-3-yl)-pyrrolidin-1-ylmethyl]-phenyl}-[1,2,4]triazolo[1,5-a]pyrimidine] | 435 nM | 44 nM |
| Fc1ccc(-c2cn3nc(C4CC4)nc3nc2-c2ccc(CN3CCC(c4n[nH]c(-c5ccccn5)n4)CC3)cc2)cc1 [Example 51.1, 2-cyclopropyl-6-(4-fluorophenyl)-5-{4-[4-(5-pyridine-2-yl-1H-[1,2,4]triazole-3-yl)-piperidine-1-ylmethyl]-phenyl}-[1,2,4]triazolo[1,5-a]pyrimidine] | 69 nM | 32 nM |
| Cc1nc2nc(-c3ccc(CN4CCC(c5nc6cccnc6[nH]5)CC4)cc3)c(-c3ccccc3)cn2n1 [Example 23.0, 5-{4-[4-(3H-imidazo[4,5-b]pyridin-2-yl)-piperidin-1-ylmethyl]-phenyl}-2-methyl-6-phenyl-[1,2,4]triazolo[1,5-a]pyrimidine] | 759 nM | 315 nM |
| Cc1nc2nc(-c3ccc(CN4CCC(c5cnc6ccccc6n5)CC4)cc3)c(-c3ccccc3)cn2n1 [Example 24.1, 2-{1-[4-(2-methyl-6-phenyl-[1,2,4]triazolo[1,5-a]pyrimidin-5-yl)-benzyl]-piperidin-4-yl}-quinoxaline] | 9880 nM | 4370 nM |
| Cc1cccc(-c2nc(C3CN(Cc4ccc(-c5nc6nc(C(C)C)nn6cc5-c5ccccc5)cc4)C3)n[nH]2)n1 [Example 31.0, 2-isopropyl-5-(4-{3-[5-(6-methyl-pyridine-2-yl)-1H-[1,2,4]triazolo-3-yl]-azetidine-1-ylmethyl}-phenyl)-6-phenyl-[1,2,4]triazolo[1,5-a]pyrimidine] | 14 nM | 70 nM |
| Cc1nc2nc(-c3ccc(CN4CCC(c5nc6ccncc6[nH]5)CC4)cc3)c(-c3ccccc3)cn2n1 [Example 14.0, 5-{4-[4-(3H-imidazo[4,5-c]pyridin-2-yl)-piperidin-1-ylmethyl]-phenyl}-2-methyl-6-phenyl-[1,2,4]triazolo[1,5-a]pyrimidine] | 5840 nM | 3000 nM |
| CNc1nc2nc(-c3ccc(CN4CC(c5n[nH]c(-c6ccccn6)n5)C4)cc3)c(-c3ccccc3)cn2n1 [Example 43.0, methyl-(6-phenyl-5-{4-[3-(5-pyridin-2-yl-1H-[1,2,4]triazol-3-yl)azetidin-1-ylmethyl]-phenyl}-[1,2,4]triazolo[1,5-a]pyrimidin-2-yl)-amine] |  | 63 nM |

Continued, values first:

| IC50 [1] | IC50 [2] | SMILES |
| --- | --- | --- |
| 53 nM | 25 nM | CC(C)Nc1c(-c2ccccc2)c(-c2ccc(CN3CC(c4n[nH]c(-c5ccccn5)n4)C3)cc2)nc2nccn12 [Example 66.0, isopropyl-(6-phenyl-7-{4-{3-[5-(pyridine-2-yl)-1H-[1,2,4]triazole-3-yl)-azetidine-1-ylmethyl]-phenyl}-imidazo[1,2-a]pyrimidin-5-yl)-amine] |
| 55 nM | 16 nM | CNc1c(-c2ccccc2)c(-c2ccc(CN3CC(c4n[nH]c(-c5ccccn5)n4)C3)cc2)nc2nc(C)cn12 [Example 60.0, methyl-(2-methyl-6-phenyl-7-{4-{3-[5-(pyridine-2-yl)-1H-[1,2,4]triazole-3-yl)-azetidine-1-ylmethyl]-phenyl}-imidazo[1,2-a]pyrimidin-5-yl)-amine] |
| 118 nM | 14 nM | COc1nn2cc(-c3c(F)cccc3F)c(-c3ccc(CN4CC(c5n[nH]c(-c6ccccn6)n5)C4)cc3)nc2c1CO [Example 63.0, (6-(2,6-difluorophenyl)-2-methoxy-5-{4-[3-[5-pyridine-2-yl-1H-[1,2,4]triazole-3-yl)-azetidine-1-ylmethyl]-phenyl}-pyrazolo[1,5-a]pyrimidin-3-yl)-methanol] |
| 17 nM | 3 nM | Cc1cccc(-c2nc(C3CCN(Cc4ccc(-c5nc6nccn6cc5-c5ccccc5F)cc4)CC3)n[nH]2)n1 [Example 54.0, 6-(2-fluorophenyl)-7-(4-{4-[5-(6-methylpyridine-2-yl)-1H-[1,2,4]triazole-3-yl]-piperidine-1-ylmethyl}-phenyl)-imidazo[1,2-a]pyrimidine] |
| 65 nM | 23 nM | Cc1nc2nc(-c3ccc(CN4CC(c5nnc(-c6ccccn6)[nH]5)C4)cc3)c(-c3ccccc3)cn2n1 [Example 2.0, 2-methyl-6-phenyl-5-(4-{[3-(5-pyridin-2-yl-1,2,4-triazol-3-yl)azetidin-1-yl]methyl}phenyl)[1,2,4]triazolo[1,5-a]pyrimidine] |
| 7 nM | 11 nM | Cc1cccc(-c2nc(C3CCN(Cc4ccc(-c5nc6ncc(Br)n6cc5-c5ccc(F)cc5)cc4)CC3)n[nH]2)n1 [Example 53.0, 3-bromo-6-(4-fluorophenyl)-7-(4-{4-[5-(6-methylpyridine-2-yl)-1H-[1,2,4]triazole-3-yl]-piperidine-1-ylmethyl}-phenyl)-imidazo[1,2-a]pyrimidine] |
| 4 nM | 4 nM | Cc1nc2nc(-c3ccc(CN4CC(c5n[nH]c(-c6ccccn6)n5)C4)cc3)c(-c3ccccc3)cn2c1Br [Example 26.0, 3-bromo-2-methyl-6-phenyl-7-{4-[3-(5-pyridine-2-yl-1H-[1,2,4]triazole-3-yl]-azetidine-1-ylmethyl]-phenyl}-imidazo[1,2-a]pyrimidine] |
